Data on 29 compounds can be found in US7223759B2, “Antibacterial 3,5-diaminopiperidine-substituted aromatic and heteroaromatic compounds” (Anadys Pharmaceuticals, Inc., priority 2003, dated 2007).

Where only a bound is given, the exact number is not on record here.

The test system of one experiment is Escherichia coli (ATCC25922) or Staphylococcus aureus (ATCC25923). The experiment can be described thus: Antibacterial MIC, microdilution method in Mueller-Hinton medium. The conditions noted are these: Escherichia coli, 18 h, MIC in E. coli or S. aureus; two-fold serial dilutions 64 to 0.5 μg/ml in duplicate; 18 hours of incubation at 35° C.; read-out: Potency (MIC). It is filed as cell-based. An outline of the steps:
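Read after 18 h incubation at 35° C, MIC is the lowest compound level that blocked growth. Compounds were tested in duplicate over 64–0.5 μg/ml two-fold dilutions using Mueller-Hinton microdilution per NCCLS standard.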
(Dilution methods test growth across graded concentrations, often in twofold steps.)
Regarding `CC(C)(C)C(=O)Nc1ccc(Nc2nc(N3CCCCC3)nc(N3CCCCC3)n2)cc1O.Cl` [N-[4-(2,2-dimethyl-propionylammino)-3-hydroxy-phenyl]-4,6-Bis-((3R,5S)-3,5-diamino-piperidin-1-yl)-[1,3,5]triazine-2-amine], the MIC (usually the least concentration at which growth counts as inhibited) was less than 64 mg/L.
Consider `Cc1cc(NC(=O)c2cccc([N+](=O)[O-])c2O)ccc1Nc1nc(N2CCCCC2)nc(N2CCCCC2)n1.Cl` [N-[4-(2-hydroxy-3-nitro-benzoylamino)-2-methyl-pphenyl]-4,6-Bis-((3R,5S)-3,5-diamino-piperidin-1-yl)-[1,3,5]triazine-2-amine], for which the MIC was more than 64 mg/L.
The same measure, in the same setting: next, `Cl.N[C@@H]1C[C@H](N)CN(c2nc(Nc3c[nH]c(=O)[nH]c3=O)nc(N3C[C@H](N)C[C@H](N)C3)n2)C1` [N-(2,4-dioxo-1,2,3,4-tetrahydro-pyrimidin-5-yl)-4,6-Bis-((3R,5S)-3,5-diamino-piperidin-1-yl)-[1,3,5]triazine-2-amine]: less than 64 mg/L; `N[C@@H]1C[C@H](N)CN(c2nc(Nc3ccc(S(=O)(=O)Nc4ccc5cn[nH]c5c4)cc3)nc(N3C[C@H](N)C[C@H](N)C3)n2)C1` [N-[4-(1H-indazol-6-ylsulfamoyl)-phenyl]-4,6-Bis-((3R,5S)-3,5-diamino-piperidin-1-yl)-[1,3,5]triazine-2-amine]: more than 64 mg/L; `COc1ccc(Nc2ccc(NC(=O)CC(=O)c3ccc(Nc4nc(N5CCCCC5)nc(N5CCCCC5)n4)cc3)cc2)cc1` [N-{4-[2-(4-methoxy-phenylcarbamoyl)-acetyl]-phenyl}-44,6-Bis-((3R,5S)-3,5-diamino-piperidin-1-yl)-[1,3,5]triazine-2-amine]: less than 16 mg/L.
Same read-out and setting: next, `N[C@@H]1C[C@H](N)CN(c2nc(NCCN3CCNC3=O)nc(Nc3ccc(NC(=O)c4ccc(Cl)cc4)c(O)c3)n2)C1` [4-Chloro-N-{4-[4-((3S,5R)-3,5-diamino-piperidin-1-yl)-6-[2-(2-oxo-imidazolidin-1-yl)-ethylamino]-[1,3,5]triazin-2-ylamino}-2-hydroxy-phenyl)-benzamide]: less than 64 mg/L.
For the compound `N[C@@H]1C[C@H](N)CN(c2nc(Nc3ccc(S(=O)(=O)Nc4ccc5cn[nH]c5c4)cc3)nc(N3CCC(N4CCCC4)CC3)n2)C1` [4-[4-((3S,5R)-3,5-Diamino-piperidin-1-yl)-6-(4-pyrrolidin-1-yl-piperidin-1-yl)-[1,3,5]triazin-2-ylamino]-N-(1H-indazol-6-yl)-benzenesulfonamide], the MIC was more than 64 mg/L.
Still for that read-out and setting: next, `Cl.Nc1nc(N2C[C@H](N)C[C@H](N)C2)nc(N2C[C@H](N)C[C@H](N)C2)n1` [4,6-Bis-((3R,5S)-3,5-diamino-piperidin-1-yl)-[1,3,5]triazin-2-ylamine]: more than 64 mg/L.
On the same count and under the same terms, the value for `O=S(=O)(Nc1ccc2cn[nH]c2c1)c1ccc(Nc2nc(N3CCCCC3)nc(N3CCNCC3)n2)cc1` [4-[4-((3S,5R)-3,5-Diamino-piperidin-1-yl)-6-piperazin-1-yl[1,3,5,-triazin-2-ylamino]-N-(1H-indazol-6-yl)-benzenesulfonamide] was more than 64 mg/L.
`Cl.N[C@@H]1C[C@H](N)CN(c2nc(Nc3ccon3)nc(N3C[C@H](N)C[C@H](N)C3)n2)C1` [N-isoxazol-3-yl-4,6-Bis-((3R,5S)-3,5-diamino-piperidin-1-yl)-[1,3,5]triazine-2-amine]: the MIC was more than 64 mg/L.
For the compound `CNC(=N)Nc1ccc(Nc2nc(C3CCCCC3)nc(N3CCCCC3)n2)cc1.Cl` [N-[4-(N-methyl-quanidino)-phenyl]-4,6-Bis-((3R,5S)-3,5-diamino-piperidin-1-yl)-[1,3,5]triazine-2-amine], the MIC is more than 64 mg/L.
On the same count and under the same terms, the value for `Cl.Oc1cccc(C2CCN(c3nc(N4CCCCC4)nc(N4CCCCC4)n3)CC2)c1` [3-[1-(4,6-Bis-((3R,5S)-3,5-diamino-piperidin-1-yl)-[1,3,5]triazin-2-yl)-piperidin-4-yl]-phenyl] was more than 64 mg/L.

The experiment is the same for the next values; noted with them: Escherichia coli, 18 h, read-out: Potency (MIC).
Consider `CCCCCC(CC)C(=O)Nc1ccc(S(=O)(=O)Nc2ccc(Nc3nc(N4C[C@H](N)C[C@H](N)C4)nc(N4C[C@H](N)C[C@H](N)C4)n3)cc2O)cc1` (stereo partly drawn) [N-{4-[4-(2-ethyl-heptanoylamino)-benzenesulfonylamino]-3-hydroxy-phenyl}-4,6-Bis-((3R,5S)-3,5-diamino-piperidin-1-yl)-[1,3,5]triazine-2-amine], for which the MIC was less than 16 mg/L.
With `N[C@@H]1C[C@H](N)CN(c2nc(Nc3cc(Cl)c(NC(=O)c4ccc(Cl)cc4O)c(Cl)c3)nc(N3C[C@H](N)C[C@H](N)C3)n2)C1` [N-[3,5-dichloro-4-(4-chloro-2-hydroxy-benzoylamino)-phenyl]-4,6-Bis-((3R,5S)-3,5-diamino-piperidin-1-yl)-[1,3,5]triazine-2-amine], the MIC was less than 16 mg/L.
Same read-out and setting: next, `N[C@@H]1C[C@H](N)CN(c2nc(NNc3ccccc3F)nc(N3C[C@H](N)C[C@H](N)C3)n2)C1` [N-(4,6-Bis-((3R,5S)-3,5-diamino-piperidin-1-yl)-[1,3,5]triazin-2-yl)-N′-(2-Fluoro-phenyl)-hydrazine]: more than 64 mg/L; `CC(=O)c1ccc(Nc2nc(N3C[C@H](N)C[C@H](N)C3)nc(N3CCC[C@@H](O)C3)n2)cc1` [1-{4-[4-((3R,5S)-3,5-Diamino-piperidin-1-yl)-6-((R)-3-hydroxy-piperidin-1-yl)-[1,3,5]triazin-2-ylamino]-phenyl}-ethanone]: more than 64 mg/L; `N[C@@H]1C[C@H](N)CN(c2nc(Nc3ccc(C(=O)CC(=O)Nc4ccc(F)c(F)c4)cc3)nc(N3C[C@H](N)C[C@H](N)C3)n2)C1` [N-{4-[2-(3,4-difluoro-phenylcarbamoyl)-acetyl]-phenyl}-4,6-Bis-((3R,5S)-3,5-diamino-piperidin-1-yl)-[1,3,5]triazine-2-amine]: less than 16 mg/L.
As to `Nc1ccc(Nc2nc(N3C[C@H](N)C[C@H](N)C3)nc(N3C[C@H](N)C[C@H](N)C3)n2)cc1OCc1ccccc1` [N-(4-amino-3-benzyloxy-phenyl)-4,6-Bis-((3R,5S)-3,5-diamino-piperidin-1-yl)-[1,3,5]triazine-2-amine], the MIC is more than 64 mg/L.
Take `COc1cc2c(cc1Nc1nc(N3C[C@H](N)C[C@H](N)C3)nc(N3C[C@H](N)C[C@H](N)C3)n1)oc1ccccc12` [N-(2-methoxy-dibenzofuran-3-yl)-4,6-Bis-((3R,5S)-3,5-diamino-piperidin-1-yl)-[1,3,5]triazine-2-amine]: the MIC is less than 64 mg/L.
As to `N[C@@H]1C[C@H](N)CN(c2nc(Nc3ccc(C(=O)CC(=O)NCc4ccc5c(c4)OCO5)cc3)nc(N3C[C@H](N)C[C@H](N)C3)n2)C1` [N-(4-{2-[(benzo[1,3]dioxol-5-ylmethyl)-carbamoyl]-acetyl}-phenyl)-4,6-Bis-((3R,5S)-3,5-diamino-piperidin-1-yl)-[1,3,5]triazine-2-amine], the MIC was more than 64 mg/L.
The same measure, in the same setting: next, `N[C@@H]1C[C@H](N)CN(c2nc(Nc3ccc(C(=O)CC(=O)Nc4ccccc4F)cc3)nc(N3C[C@H](N)C[C@H](N)C3)n2)C1` [N-{4-[2-(2-fluoro-phenylcarbamoyl)-acetyl]-phenyl}-4,6-Bis-((3R,5S)-3,5-diamino-piperidin-1-yl)-[1,3,5]triazine-2-amine]: less than 64 mg/L; `N[C@@H]1C[C@H](N)CN(c2nc3nc(Nc4ccc(NC(=O)c5ccc6ccccc6c5O)cc4)nc(N4C[C@H](N)C[C@H](N)C4)c3[nH]2)C1` [1-Hydroxy-naphthalene-2-carboxylicacid {4-[6-((3R,5S)-3,5-diamino-piperidin-1-yl)-8-((3S,5R)-3,5-diamino-piperidin-1-yl)-7H-purin-2-ylamino]-phenyl}-amide]: less than 16 mg/L; `Cc1noc(NS(=O)(=O)c2ccc(Nc3nc(N4C[C@H](N)C[C@H](N)C4)nc(N4C[C@H](N)C[C@H](N)C4)n3)cc2)c1C` [N-[4-(3,4-dimethyl-isoxazol-5-ylsulfamoyl)-phenyl]-4,6-Bis-((3R,5S)-3,5-diamino-piperidin-1-yl)-[1,3,5]triazine-2-amine]: more than 64 mg/L.
Still for that read-out and setting: the value for `N[C@@H]1C[C@H](N)CN(c2nc(Nc3ccc(C(=O)N4CCNC(=O)C4)c(O)c3)nc(N3C[C@H](N)C[C@H](N)C3)n2)C1` [N-[3-hydroxy-4-(3-oxo-piperazine-1-carbonyl)-phenyl]-4,6-Bis-((3R,5S)-3,5-diamino-piperidin-1-yl)-[1,3,5]triazine-2-amine] was more than 64 mg/L; that for `CCN(CC)CCNC(=O)c1ccc(Nc2nc(N3C[C@H](N)C[C@H](N)C3)nc(N3C[C@H](N)C[C@H](N)C3)n2)cc1` [N-[4-(2-diethylamino-ethylcarbamoyl)-phenyl]-4,6-Bis-((3R,5S)-3,5-diamino-piperidin-1-yl)-[1,3,5]triazine-2-amine] was less than 64 mg/L; that for `COc1ccc(OC)c(NC(=O)c2ccc(Nc3nc(N4C[C@H](N)C[C@H](N)C4)nc(N4C[C@H](N)C[C@H](N)C4)n3)cc2O)c1` [N-[4-(2,5-dimethoxy-phenylcarbamoyl)-3-hydroxy-phenyl]-4,6-Bis-((3R,5S)-3,5-diamino-piperidin-1-yl)-[1,3,5]triazine-2-amine] was less than 16 mg/L.
On the same count and under the same terms, next, `N[C@@H]1C[C@H](N)CN(c2nc(N3C[C@H](N)C[C@H](N)C3)nc(-n3ccc4cc(Br)ccc43)n2)C1` [5-Bromo-1-(4,6-Bis-((3R,5S)-3,5-diamino-piperidin-1-yl)-[1,3,5]triazain-2-yl)-1H-indole]: less than 64 mg/L.
On to `N[C@@H]1C[C@H](N)CN(c2nc(Nc3ccc(C(=O)CC(=O)Nc4cccc(Cl)c4)cc3)nc(N3C[C@H](N)C[C@H](N)C3)n2)C1` [N-{4-[2-(3-chloro-phenylcarbamoyl)-acetyl]-phenyl}-4,6-Bis-((3R,5S)-3,5-diamino-piperidin-1-yl)-[1,3,5]triazine-2-amine], for which the MIC is less than 16 mg/L.

The same experiment, now with this note: MIC in E. coli or S. aureus; two-fold serial dilutions 64 to 0.5 μg/ml in duplicate; 18 hours of incubation at 35° C.
Turning to “carboxylic acid {4-[4-((2S,4S)-4-amino-2-hydroxymethyl-pyrrolidin-1-yl)-6-((3R,5S)-3,5-diamino-piperidin-1-yl)-[1,3,5]triazine-2-ylamino]-phenyl}-amide”, the “Potency (MIC)” value was “++ (++ means MIC<16 μg/ml in E. coli or S. aureus)”.
